Key:
human OX2 receptor = human OX2 receptor (Homo sapiens (Human), UniProt O43614); assay: Measurement of orexin type 2 receptor agonist activity (Experimental Example 2-2, FDSS uCELL, calcium indicator); assay type: cell-based; details: CHO cells expressing human OX2 receptor; for EC50: Fluo-4 AM
Protocol: CHO cells forcibly expressing human OX2 receptor were seeded in each well of 384 well black transparent bottom plate (BD Falcon) at 7,500 cells/well, and cultured for one day in a 5% CO2 incubator at 37° C. […] The plate was stood for 30 min in a 5% CO2 incubator at 37° C., and further stood at room temperature for 30 min. A test compound prepared by diluting with assay buffer B (HESS, 20 mM HEPES, 0.1% BSA) was added at 10 μL/well, and the fluorescence value was measured by FDSSμCELL (Hamamatsu Photonics K.K.) every one sec for 1 min, and thereafter every two sec for 1 min sec.

[1] = molecular target: human orexin type 2 receptor (hOX2R) (Homo sapiens (Human), UniProt O43614); assay: Measurement of orexin type 2 receptor agonist activity (Experimental Example 2-1, FLIPR TETRA, intracellular Ca2+); assay type: cell-based; details: CHO dhfr- cells expressing hOX2R; for Emax: read-out: Emax (%); for Emax at 30 µM: value at 30 uM concentration, orexin B as full agonist = 100%
Sequence of human orexin type 2 receptor (hOX2R) (O43614 whole entry): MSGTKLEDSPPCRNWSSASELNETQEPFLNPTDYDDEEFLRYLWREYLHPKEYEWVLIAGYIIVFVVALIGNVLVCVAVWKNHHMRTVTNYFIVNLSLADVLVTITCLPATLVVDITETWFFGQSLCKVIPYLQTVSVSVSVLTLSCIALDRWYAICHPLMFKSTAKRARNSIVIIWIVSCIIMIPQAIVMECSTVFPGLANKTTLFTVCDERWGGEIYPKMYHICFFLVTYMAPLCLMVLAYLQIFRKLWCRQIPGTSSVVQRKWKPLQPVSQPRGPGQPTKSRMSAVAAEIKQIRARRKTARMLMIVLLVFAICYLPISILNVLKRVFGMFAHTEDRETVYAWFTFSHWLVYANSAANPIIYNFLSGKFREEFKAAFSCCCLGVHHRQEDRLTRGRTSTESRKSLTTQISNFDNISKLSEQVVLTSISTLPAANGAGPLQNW

[2] = CHO, DMSO = 0%, reference OX-A at 10 nM
[3] = DMSO = 0%, reference OX-A at 10 nM
[4] = agonist activity, 10 nM human orexin B = 100%

Sequence of human OX2 receptor (O43614 whole entry): as above

Row | EC50 (human OX2 receptor) [nM] | Emax (human OX2 receptor; [2]) [%] | EC50 ([1]; FLIPR TETRA, Fluo-4AM) [nM] | Emax ([1]; FLIPR TETRA, Fluo-4AM) [%] | Compound | other results
1 | 1600 | 116 |  |  | CCNC(=O)N1CCC[C@H](NS(C)(=O)=O)[C@@H]1CO[C@H]1CCC[C@@H]1Oc1ccccc1 [Example 350, cis-N-ethyl-3-((methylsulfonyl)amino)-2-((((1S,2S)-2-phenoxycyclopentyl)oxy)methyl)-piperidine-1-carboxamide] | 
2 | 51 | 104 |  |  | CC(=O)N1CCC[C@H](NS(=O)(=O)C2CC2)[C@@H]1CO[C@H]1CC[C@@H](c2ccccc2)CC1 (relative stereo) [Example 354, N-(cis-1-acetyl-2-(((cis-4-phenylcyclohexyl)oxy)methyl)-piperidin-3-yl)cyclopropanesulfonamide] | 
3 | 84 | 101 |  |  | CC(=O)N1CCC[C@H](NS(=O)(=O)C2CC2)[C@@H]1CO[C@H]1CC[C@@H](C(C)C)CC1 (relative stereo) [Example 357, N-(cis-1-acetyl-2-(((cis-4-isopropylcyclohexyl)oxy)methyl)-piperidin-3-yl)cyclopropanesulfonamide] | 
4 | 0.44 | 108 |  |  | CCNC(=O)N1CCC[C@H](NS(=O)(=O)C2CC2)[C@@H]1CO[C@H]1CC[C@@H](c2ccccc2)CC1 (relative stereo) [Example 355, cis-3-((cyclopropylsulfonyl)amino)-N-ethyl-2-(((cis-4-phenylcyclohexyl)oxy)methyl)-piperidine-1-carboxamide] | 
5 | 21 | 105 |  |  | COC(=O)N1CCC[C@H](NS(C)(=O)=O)[C@@H]1CO[C@H]1CC[C@@H](c2ccc(O)cc2)CC1 (relative stereo) [Example 345, methyl cis-2-(((cis-4-(4-hydroxyphenyl)cyclohexyl)oxy)-methyl)-3-((methylsulfonyl)amino)piperidine-1-carboxylate] | 
6 | 260 | 94 |  |  | COC(=O)N1CCC[C@H](NS(C)(=O)=O)[C@@H]1CO[C@H]1CC[C@@H](c2ccccc2O)CC1 (relative stereo) [Example 347, methyl cis-2-(((cis-4-(2-hydroxyphenyl)cyclohexyl)oxy)-methyl)-3-((methylsulfonyl)amino)piperidine-1-carboxylate] | 
7 | 1300 | 100 |  |  | O=S(=O)(N[C@H]1CCCN[C@H]1CO[C@H]1CC[C@@H](c2ccccc2)CC1)C1CC1 (relative stereo) [Example 353, N-(cis-2-(((cis-4-phenylcyclohexyl)oxy)methyl)-piperidin-3-yl)cyclopropanesulfonamide] | 
8 | 290 | 109 |  |  | COC(=O)N1CCC[C@H](NS(C)(=O)=O)[C@@H]1CO[C@H]1CC[C@@H](c2ccc(OC)cc2)CC1 (relative stereo) [Example 344, methyl cis-2-(((cis-4-(4-methoxyphenyl)cyclohexyl)oxy)-methyl)-3-((methylsulfonyl)amino)piperidine-1-carboxylate] | 
9 | 1.1 | 97 |  |  | CNC(=O)N1CCC[C@H](NS(=O)(=O)C2CC2)[C@@H]1CO[C@H]1CC[C@@H](c2ccccc2)CC1 (relative stereo) [Example 359, cis-3-((cyclopropylsulfonyl)amino)-N-methyl-2-(((cis-4-phenylcyclohexyl)oxy)methyl)-piperidine-1-carboxamide] | 
10 | 9.5 |  |  |  | COC(=O)N1CCC[C@H](NS(C)(=O)=O)[C@@H]1CO[C@H]1CC[C@@H](c2ccc(O)cc2)CC1 [Example 348, methyl (2R,3S)-2-(((cis-4-(4-hydroxyphenyl)cyclohexyl)oxy)-methyl)-3-((methylsulfonyl)amino)piperidine-1-carboxylate] | Emax (%) (human OX2 receptor; [3]): 92%
11 | 210 | 98 |  |  | O=C(OCC(F)(F)F)N1CCC[C@H](NS(=O)(=O)C2CC2)[C@@H]1COC1CCN(c2ncccn2)CC1 (relative stereo) [Example 360, 2,2,2-trifluoroethyl cis-3-((cyclopropylsulfonyl)amino)-2-(((1-(pyrimidin-2-yl)piperidin-4-yl)oxy)methyl)piperidine-1-carboxylate] | 
12 |  |  | 3200 | 98 | CCc1ccccc1[C@H]1CC[C@@H](OC[C@@H]2NCCC[C@@H]2NS(C)(=O)=O)CC1 (relative stereo) [Example 311, N-(cis-2-(((cis-4-(2-ethylphenyl)cyclohexyl)oxy)methyl)-piperidin-3-yl)methanesulfonamide] | 
13 |  |  | 540 | 78 | CC(=O)N1CCC[C@H](NS(C)(=O)=O)[C@@H]1CO[C@H]1CC[C@@H](c2ccccc2OC(F)(F)F)CC1 (relative stereo) [Example 293, N-(cis-1-acetyl-2-(((cis-4-(2-(trifluoromethoxy)phenyl)cyclohexyl)oxy)methyl)piperidin-3-yl)methanesulfonamide] | 
14 |  |  | 4.2 | 93 | CCNC(=O)N1CCC[C@H](NS(C)(=O)=O)[C@@H]1CO[C@H]1CC[C@@H](c2ccccc2OC(F)(F)F)CC1 (relative stereo) [Example 295, cis-N-ethyl-3-((methylsulfonyl)amino)-2-(((cis-4-(2-(trifluoromethoxy)phenyl)cyclohexyl)oxy)methyl)piperidine-1-carboxamide] | 
15 |  |  | 150 | 99 | CS(=O)(=O)N[C@H]1CCCN(C(=O)OC2CC2)[C@H]1COC1CCN(c2ncccn2)CC1 (relative stereo) [Example 287, cyclopropyl cis-3-((methylsulfonyl)amino)-2-(((1-(pyrimidin-2-yl)piperidin-4-yl)oxy)methyl)piperidine-1-carboxylate] | 

The remaining lines, values behind:

Row | Compound | EC50 (human OX2 receptor) [nM] | Emax (human OX2 receptor; [2]) [%] | EC50 ([1]; FLIPR TETRA, Fluo-4AM) [nM] | Emax ([1]; FLIPR TETRA, Fluo-4AM) [%] | other results
16 | COC(=O)N1CCC[C@H](NS(C)(=O)=O)[C@@H]1CO[C@H]1CC[C@@H](c2cccc(O)c2)CC1 (relative stereo) [Example 343, methyl cis-2-(((cis-4-(3-hydroxyphenyl)cyclohexyl)oxy)-methyl)-3-((methylsulfonyl)amino)piperidine-1-carboxylate] | 150 |  |  |  | Emax (human OX2 receptor; [3]): 109%
17 | CCS(=O)(=O)N[C@H]1CCCN(C(=O)Nc2ccccc2)[C@H]1CO[C@H]1CC[C@@H](C)CC1 (relative stereo) [Example 37, cis-3-((ethylsulfonyl)amino)-2-(((cis-4-methylcyclohexyl)oxy)methyl)-N-phenylpiperidine-1-carboxamide] |  |  |  |  | EC50 [1, 4]: 880 nM; Emax at 30 µM [1]: 97%
18 | COC(=O)N1CCC[C@H](NS(C)(=O)=O)[C@@H]1COC1CCN(c2ccccc2Cl)CC1 (relative stereo) [Example 167, methyl cis-2-(((1-(2-chlorophenyl)piperidin-4-yl)oxy)methyl)-3-((methylsulfonyl)amino)piperidine-1-carboxylate] |  |  | 2400 | 83 | 
19 | CCNC(=O)N1CCC[C@H](NS(C)(=O)=O)[C@@H]1CO[C@H]1CC[C@@H](c2cccc(C(F)(F)F)c2)CC1 (relative stereo) [Example 207, cis-N-ethyl-3-((methylsulfonyl)amino)-2-(((cis-4-(3-(trifluoromethyl)phenyl)cyclohexyl)oxy)methyl)piperidine-1-carboxamide] |  |  | 26 | 110 | 
20 | CS(=O)(=O)N[C@H]1CCCN(C(=O)C2CC2)[C@H]1CO[C@H]1CC[C@@H](c2ccccc2)CC1 [Example 31, N-((2R,3S)-1-(cyclopropylcarbonyl)-2-(((cis-4-phenylcyclohexyl)oxy)methyl)piperidin-3-yl)methanesulfonamide] |  |  |  |  | EC50 [1, 4]: 0.66 nM; Emax at 30 µM [1]: 95%
21 | CCNC(=O)N1CCC[C@H](NS(C)(=O)=O)[C@@H]1CO[C@H]1CC[C@@H](c2cccc(F)c2)CC1 [Example 148, (2R,3S)-N-ethyl-2-(((cis-4-(3-fluorophenyl)cyclohexyl)oxy)methyl)-3-((methylsulfonyl)amino)piperidine-1-carboxamide] |  |  | 0.053 | 103 | 
22 | CCNC(=O)N1CCC[C@H](NS(C)(=O)=O)[C@@H]1CO[C@H]1CC[C@@H](c2ccc(F)c(F)c2)CC1 (relative stereo) [Example 144, cis-2-(((cis-4-(3,4-difluorophenyl)cyclohexyl)oxy)methyl)-N-ethyl-3-((methylsulfonyl)amino)piperidine-1-carboxamide] |  |  | 1 | 104 | 
23 | CC(C)[C@H]1CC[C@@H](OC[C@H]2[C@@H](NS(C)(=O)=O)CCCN2C(=O)N(C)C)CC1 (relative stereo) [Example 40, cis-2-(((cis-4-isopropylcyclohexyl)oxy)methyl)-N,N-dimethyl-3-((methylsulfonyl)amino)piperidine-1-carboxamide] |  |  |  |  | EC50 [1, 4]: 720 nM; Emax at 30 µM [1]: 91%
24 | CS(=O)(=O)N[C@H]1CCCN(C(=O)[C@H]2C[C@@H]2F)[C@H]1COC1CCN(c2ccccc2F)CC1 [Example 222, N-(cis-1-(((1R,2S)-2-fluorocyclopropyl)carbonyl)-2-(((1-(2-fluorophenyl)piperidin-4-yl)oxy)methyl)piperidin-3-yl)methanesulfonamide] |  |  | 2100 | 102 | 
25 | CC(=O)N1CCC[C@H](NS(C)(=O)=O)[C@@H]1CO[C@H]1CC[C@@H](c2cc(F)ccc2F)CC1 [Example 217, N-((2R,3S)-1-acetyl-2-(((cis-4-(2,5-difluorophenyl)cyclohexyl)oxy)methyl)piperidin-3-yl)methanesulfonamide] |  |  | 13 |  | Emax (%) ([1]; FLIPR TETRA, Fluo-4AM): 110%

From patent publication US10287305B2, “Substituted piperidine compound and use thereof” (Takeda Pharmaceutical Company Limited, priority 2016, dated 2019)
